PubChem BioAssay (NCI)
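Test compounds were applied to cells in 96-well plates for 48 hours at 5 doses. TGI is the concentration that stops growth completely.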

Columns and labels:
Experiment in all cases: inhibition of tumour cell growth, NCI panel, 48 h
M14 melanoma = tested on: M14 melanoma
RXF 393 renal = tested on: RXF 393 renal
LXFL 529 NSCLC = tested on: LXFL 529 NSCLC
SR leukemia = tested on: SR leukemia
HOP-92 NSCLC = tested on: HOP-92 NSCLC
OVCAR-4 ovarian = tested on: OVCAR-4 ovarian
SK-MEL-28 melanoma = tested on: SK-MEL-28 melanoma
MALME-3M melanoma = tested on: MALME-3M melanoma
HCC-2998 colon = tested on: HCC-2998 colon
KM12 colon = tested on: KM12 colon
MOLT-4 leukemia = tested on: MOLT-4 leukemia
A549 NSCLC = tested on: A549 NSCLC
U251 CNS = tested on: U251 CNS
HCT-116 colon = tested on: HCT-116 colon
TK-10 renal = tested on: TK-10 renal
HT29 colon = tested on: HT29 colon
UACC-62 melanoma = tested on: UACC-62 melanoma
NCI-H226 lung = tested on: NCI-H226 lung
SK-MEL-2 melanoma = tested on: SK-MEL-2 melanoma
UACC-257 melanoma = tested on: UACC-257 melanoma

| SMILES | TGI (M14 melanoma) [µM] | TGI (RXF 393 renal) [µM] | TGI (LXFL 529 NSCLC) [µM] | TGI (SR leukemia) [µM] | TGI (HOP-92 NSCLC) [µM] | TGI (OVCAR-4 ovarian) [µM] | TGI (SK-MEL-28 melanoma) [µM] | TGI (MALME-3M melanoma) [µM] | TGI (HCC-2998 colon) [µM] | TGI (KM12 colon) [µM] | TGI (MOLT-4 leukemia) [µM] | TGI (A549 NSCLC) [µM] | TGI (U251 CNS) [µM] | TGI (HCT-116 colon) [µM] | TGI (TK-10 renal) [µM] | TGI (HT29 colon) [µM] | TGI (UACC-62 melanoma) [µM] | TGI (NCI-H226 lung) [µM] | TGI (SK-MEL-2 melanoma) [µM] | TGI (UACC-257 melanoma) [µM] |
| --- | --- | --- | --- | --- | --- | --- | --- | --- | --- | --- | --- | --- | --- | --- | --- | --- | --- | --- | --- | --- |
| COc1ccc(C[C@H](N)C(=O)N2C[C@@H](CO)C[C@@H](n3ccc(=O)[nH]c3=O)C2)cc1 | > 100 | > 100 | > 100 | > 100 | > 100 | > 100 | > 100 | > 100 | > 100 | > 100 | > 100 | > 100 | > 100 | > 100 | > 100 | > 100 | > 100 | > 100 | > 100 | – |
| COC1OC2=CCC3C(=O)NC(=O)C3C2[C@H](OCc2ccccc2)C1OCc1ccccc1 (some centres not stated) | 3.19 | 2.99 | 3.09 | – | 4.15 | 5.32 | 3.3 | 3.26 | 11.4 | 19.4 | – | 40.1 | 33.3 | 3.21 | 3.12 | 3.36 | 6 | – | 16.4 | 3.68 |
| O=C(N/N=C/c1cc(Br)cc(Br)c1[O-])c1ccccc1O.O=C(N/N=C/c1cc(Br)cc(Br)c1[O-])c1ccccc1O.[Ni+2] | 1.47 | 2.62 | – | 1.65 | 2.02 | 0.825 | 1.96 | 1.98 | 1.39 | 2.13 | 15.6 | 2.33 | 1.84 | 1.55 | 1.87 | 2.24 | 0.661 | 1.56 | 1.3 | 2.28 |
| CCCCNC(=O)/N=C/c1c(O)c2ccccc2oc1=O | > 100 | 79.5 | > 100 | > 100 | > 100 | > 100 | > 100 | – | > 100 | – | > 100 | > 100 | – | > 100 | > 100 | > 100 | > 100 | > 100 | 66.1 | > 100 |
